In PMC8390638, “Termitomenins F and G, Two New Lignan Glucosides from Terminalia chebula var. tomentella (Kurz) C. B. Clarke” (Natural Products and Bioprospecting, 2021):

The compounds below were run against α-glucosidase (assay: α-glucosidase inhibitor screening assay (PNPG substrate, absorbance at 405 nm)). Details: means ± SD (n = 3), phosphate buffer pH 6.8, 37 °C, 1 h, Reed and Muench method, read-out: IC50 (one-half maximal inhibitory concentration to α-glucosidase).
Format: biochemical
Description: The α-glucosidase inhibitor screening assay was conducted as reported previously and slightly modified. […] 4-Nitrophenol-α-D-glucopyranoside (PNPG) was used as an enzyme inhibitor screening model. α-glucosidase solution (0.025 U·mL^−1), PNPG (0.1 M), phosphate buffer (pH 6.8) and test samples (50 μM) were incubated in 96-well plates at 37 °C for 1 h. A microplate reader was recorded by the absorbance at 405 nm. No enzyme as the blank readings were subtracted from each well and compared to the control. In this assay, all reactions were performed in triplicate. The α-glucosidase inhibitory activity was presented as inhibition ratio. The formula to calculate the inhibition rate is as follows: inhibition rate (%) = (1 ‒ OD experimental 405 nm/OD […] 405 nm) × 100%, and IC50 values were calculated according to the Reed and Muench method.
`O=C1O[C@H]2[C@@H]3OC(=O)c4cc(O)c(O)c(O)c4-c4c(O)c(O)c5oc(=O)c6c(c(O)c(O)c7oc(=O)c4c5c76)-c4c(cc(O)c(O)c4O)C(=O)OC[C@H]3OC(O)[C@@H]2OC(=O)c2cc(O)c(O)c(O)c2-c2c1cc(O)c(O)c2O` (mixture of isomers) [Compound 10, punicalagin] was tested, and the IC50 was 270 ± 10 nM.
`O=C(OC[C@H]1O[C@@H](OC(=O)c2cc(O)c(O)c(O)c2)[C@H](O)[C@@H](OC(=O)c2cc(O)c(O)c(O)c2)[C@@H]1O)c1cc(O)c(O)c(O)c1` [Compound 11, 1,3,6-tri-O-galloyl-β-D-glucopyranose] gave an IC50 of 2280 ± 70 nM.
`O=C(OC[C@H]1O[C@@H](OC(=O)c2cc(O)c(O)c(O)c2)[C@H](OC(=O)c2cc(O)c(O)c(O)c2)[C@@H](OC(=O)c2cc(O)c(O)c(O)c2)[C@@H]1OC(=O)c1cc(O)c(O)c(O)c1)c1cc(O)c(O)c(O)c1` [Compound 12, 1,2,3,4,6-penta-O-galloyl-β-D-glucopyranose] was tested, and the IC50 was 100 ± 10 nM.
`O=C(O[C@@H]1O[C@@H]2COC(=O)c3cc(O)c(O)c(O)c3-c3c(cc(O)c(O)c3O)C(=O)O[C@H]([C@H]1O)[C@@H]2O)c1cc(O)c(O)c(O)c1` [Compound 13, corilagin] gave an IC50 of 3120 ± 230 nM.
